Counter-ions that a name gives are not always drawn.
Tests used:
CDK2/cycline E = biological target: T1, CDK2/cycline E (Homo sapiens, UniProt P24941); assay: CDK2/cyclineE Flashplate test in 96-well format; assay type: biochemical; details: CDK2/cycline E complex, 1 μM ATP
T1 construct: made in house; host or cells: Sf21 insect cells (baculovirus coinfection)
Method in brief: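 Recombinant human CDK2/cyclin E (His-tagged cyclin E, coexpressed in Sf21 cells), 20 nM, phosphorylates biotinylated pRb peptide (10 μM) with 1 μM ATP plus [γ-33P]ATP in HEPES pH 7.5, MgCl2, DTT at 30 °C. Inhibitors tested at 10 μM down to 0.014 μM; 33P incorporation read by scintillation on streptavidin plates.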

Tie2 = biological target: T2, Tie2 (Homo sapiens, UniProt Q02763); assay: Tie2 kinase test, phosphorylation of PLC with GST-Tie2; assay type: biochemical; details: GST-Tie2 intracellular domain 776-1124
T2 construct: amino acids of the intracellular domain 776-1124; made in house; host or cells: baculovirus expression (pFastBacGT vector)
T2 sequence (Q02763 776-1124): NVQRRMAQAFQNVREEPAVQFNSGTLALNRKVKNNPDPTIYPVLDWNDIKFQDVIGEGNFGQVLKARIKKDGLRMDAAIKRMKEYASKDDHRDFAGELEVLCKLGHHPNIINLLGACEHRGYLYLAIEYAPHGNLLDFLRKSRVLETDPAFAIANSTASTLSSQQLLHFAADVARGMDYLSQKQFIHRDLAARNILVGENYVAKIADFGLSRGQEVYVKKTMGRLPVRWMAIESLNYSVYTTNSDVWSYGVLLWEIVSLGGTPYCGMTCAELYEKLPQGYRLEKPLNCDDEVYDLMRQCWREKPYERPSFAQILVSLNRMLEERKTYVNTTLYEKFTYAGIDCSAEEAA

Aurora1 = biological target: T3, Aurora1 (Homo sapiens, UniProt Q96GD4); assay: Aurora1 enzymatic test, NuMA phosphorylation with [33P]ATP, Flashplate; assay type: biochemical; details: Aurora-B/INCENP-C3 recombinant complex, 1 μM ATP
T3 construct: His tag (N); made in house
T3 sequence (Q96GD4 whole entry, species assumed): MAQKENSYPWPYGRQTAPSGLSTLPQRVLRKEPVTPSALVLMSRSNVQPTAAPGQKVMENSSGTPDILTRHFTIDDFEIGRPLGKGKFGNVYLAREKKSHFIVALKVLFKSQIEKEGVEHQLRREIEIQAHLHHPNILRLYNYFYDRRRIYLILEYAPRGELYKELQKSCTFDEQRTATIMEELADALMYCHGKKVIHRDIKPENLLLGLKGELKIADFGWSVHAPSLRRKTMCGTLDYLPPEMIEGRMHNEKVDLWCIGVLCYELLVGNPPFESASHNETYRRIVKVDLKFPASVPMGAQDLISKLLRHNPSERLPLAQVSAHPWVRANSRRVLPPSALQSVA
T3 sequence (Q9NQS7 835-903 partner limits assumed, species assumed): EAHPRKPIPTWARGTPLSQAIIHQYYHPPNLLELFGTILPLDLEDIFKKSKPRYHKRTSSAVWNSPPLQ
Method in brief: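 Recombinant His-tagged Aurora-B/INCENP-C3 complex (10 nM) phosphorylates 500 nM His-NuMA fragment with 1 µM ATP plus [33P]ATP, 30 minutes at 37° C in Tris pH 7.5 with 5 mM MgCl2, on nickel-chelate Flashplates. Incorporated 33P counted; percent inhibition versus enzyme control after no-enzyme background subtraction.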

Aurora2 = biological target: T4, Aurora2 (Homo sapiens, UniProt O14965); assay: Aurora2 enzymatic test, NuMA phosphorylation with [33P]ATP, Flashplate; assay type: biochemical; details: whole recombinant protein, 1 μM ATP
T4 construct: Aurora2: whole recombinant protein comprising an N-terminal histidine tail; His tag (N); made in house; host or cells: E. coli
T4 sequence (O14965 1-403): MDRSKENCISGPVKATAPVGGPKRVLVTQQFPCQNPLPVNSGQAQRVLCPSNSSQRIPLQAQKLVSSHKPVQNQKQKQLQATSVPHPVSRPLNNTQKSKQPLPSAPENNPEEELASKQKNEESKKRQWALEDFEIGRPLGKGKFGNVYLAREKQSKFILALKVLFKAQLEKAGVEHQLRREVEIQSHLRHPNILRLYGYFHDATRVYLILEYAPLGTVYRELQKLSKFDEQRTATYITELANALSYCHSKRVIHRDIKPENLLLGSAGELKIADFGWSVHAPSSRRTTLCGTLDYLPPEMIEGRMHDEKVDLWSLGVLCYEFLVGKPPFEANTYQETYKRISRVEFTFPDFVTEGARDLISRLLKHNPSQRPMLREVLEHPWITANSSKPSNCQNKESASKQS
Method in brief: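 Full-length His-tagged Aurora2 (E. coli, >82% pure) at 10 nM phosphorylated 500 nM His-NuMA fragment on Ni-chelate Flashplates. Conditions were pH 7.5 Tris buffer with 10 mM MgCl2, 1 μM ATP plus [33P]ATP, 30 min at 37 °C.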

| melting point [°C] | IC50 (CDK2/cycline E) [nM] | IC50 (Tie2) [nM] | IC50 (Aurora1) [nM] | IC50 (Aurora2) [nM] | SMILES |
| --- | --- | --- | --- | --- | --- |
| 242 | 1490 | 1030 | 288 | 49 | CN(Cc1ccc(C(=O)Nc2n[nH]c3sc(C(=O)NN(C)c4ccccc4)cc23)cc1)c1ccccc1 [Example 24, 4-[(methylphenylamino)methyl]-N-[5-(N′-methyl-N′-phenylhydrazinocarbonyl)-1H-thieno[2,3-c]pyrazol-3-yl]benzamide] |
| 242 | 134 | 252 | 29 | 8 | CN(NC(=O)c1cc2c(NC(=O)c3ccc(CN4CCOCC4)cc3)n[nH]c2s1)c1ccccc1 [Example 8, N-[5-(N′-methyl-N′-phenylhydrazinocarbonyl)-1H-thieno[2,3-c]pyrazol-3-yl]-4-morpholin-4-ylmethylbenzamide] |
| 162 | – | – | – | – | CN1CCCN(Cc2ccc(C(=O)Nc3n[nH]c4sc(C(=O)NN(C)c5ccc(Cl)cc5)cc34)cc2)CC1 (as salt: salt) [Example 12b, 4-(4-methylperhydro-1,4-diazepin-1-ylmethyl)-N-[5-(N′-(4-chlorophenyl)-N′-methylhydrazinocarbonyl)-1H-thieno[2,3-c]pyrazol-3-yl]benzamide] |
| 172 | 65 | 820 | 131 | 157 | CN(NC(=O)c1cc2c(NC(=O)c3ccc(Br)cc3)n[nH]c2s1)c1ccccc1 [Example 9, 4-bromo-N-[5-(N′-methyl-N′-phenylhydrazinocarbonyl)-1H-thieno[2,3-c]pyrazol-3-yl]benzamide] |
